Experimental findings from ChEMBL document CHEMBL1139131, “Lead optimization of 5,6-diarylpyridines as CB1 receptor inverse agonists” (Bioorg Med Chem Lett, 2007) are described below.

The target in one data set is Cannabinoid receptor 2 (Homo sapiens, UniProt P34972).
A short description of data set [1]: in vivo. The following applies: Sprague-Dawley, rat.
Description: Bioavailability in Sprague-Dawley rat
Data set [2] can be described thus: in vivo. The following applies: Sprague-Dawley, rat. The source holds these as a separate data set.
Description: Plasma clearance in Sprague-Dawley rat
Data set [3] can be described thus: in vivo. The following applies: Sprague-Dawley, rat. The source holds these as a separate data set.
Description: Half life in Sprague-Dawley rat
A short description of data set [4]: in vivo. The following applies: Sprague-Dawley, rat. The source holds these as a separate data set.
Description: Volume of distribution in Sprague-Dawley rat
Data set [5] is described as follows: in vivo. The following applies: Sprague-Dawley, rat, brain, iv.
Description: Ratio of drug level in brain to plasma in iv dosed Sprague-Dawley rat after 0.25 hr
Data set [6] is described as follows: in vivo. The following applies: Sprague-Dawley, rat, brain, iv. The source holds these as a separate data set.
Description: Ratio of drug level in brain to plasma in iv dosed Sprague-Dawley rat after 4 hrs

Each structure is given as a SMILES string.

Cannabinoid receptor 2, sequence (P34972 whole entry): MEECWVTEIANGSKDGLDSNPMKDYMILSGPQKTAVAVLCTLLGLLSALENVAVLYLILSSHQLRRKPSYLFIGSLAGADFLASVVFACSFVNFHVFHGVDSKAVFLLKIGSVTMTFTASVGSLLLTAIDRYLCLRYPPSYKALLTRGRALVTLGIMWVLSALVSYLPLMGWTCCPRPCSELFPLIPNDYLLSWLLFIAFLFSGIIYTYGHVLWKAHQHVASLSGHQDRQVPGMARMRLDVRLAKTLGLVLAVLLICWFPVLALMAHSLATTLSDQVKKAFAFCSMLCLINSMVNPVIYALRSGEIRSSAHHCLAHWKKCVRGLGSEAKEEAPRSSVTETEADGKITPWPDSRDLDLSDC
Description for Cannabinoid receptor 2: Binding affinity at CB2 receptor

As usually defined, the IC50 is the midpoint of a concentration-inhibition curve. As to `N#Cc1cc(-c2ccc(Cl)cc2)c(-c2ccc(Cl)cc2Cl)nc1Oc1ccc(F)cc1`, the IC50 on Cannabinoid receptor 2 was found to be 4400 nM.
At Cannabinoid receptor 2, `CC(C)(C)C(=O)N1CCN(c2nc(-c3ccccc3Cl)c(-c3ccc(Cl)cc3)cc2C#N)CC1` displayed an IC50 of 1100 nM.
Still for that read-out and setting: with `CC(C)N1CCN(c2nc(-c3ccccc3Cl)c(-c3ccc(Cl)cc3)cc2C#N)C(=O)C1=O` the figure was 715 nM; with `N#Cc1cc(-c2ccc(Cl)cc2)c(-c2ccc(Cl)cc2Cl)nc1Oc1cccc(Cl)c1`, 4100 nM.
On to `COc1ccc(Oc2nc(-c3ccc(Cl)cc3Cl)c(-c3ccc(Cl)cc3)cc2C#N)cc1`, for which the half-inhibitory concentration (IC50) at Cannabinoid receptor 2 worked out at 3800 nM.
Usually bioavailability stands for dose-corrected exposure relative to a reference, in per cent. Read a high bioavailability as good availability. By clearance is commonly meant the volume of plasma or blood freed of the substance per unit of time. The term half-life denotes the time needed for the level to fall by half in the phase considered. A higher half-life goes with slow loss. In general, Vd refers to a proportionality between amount in the body and measured concentration, not a real space. Low readings indicate confinement near the circulation, high ones extensive tissue distribution. On Cannabinoid receptor 2, `N#Cc1cc(-c2ccc(Cl)cc2)c(-c2ccc(Cl)cc2Cl)nc1Oc1ccc(F)c(F)c1` showed an IC50 of 4100 nM. The bioavailability in the data set “in vivo [1]” was 66%. Further, the clearance in the data set “in vivo [2]” is 3.5 mL/min/kg. Besides, the half-life in the data set “in vivo [3]” was 5.6 h. This molecule also returned a distribution volume (Vd) in the data set “in vivo [4]” of 1.5 L/kg. The Kp at […] in “in vivo [5]” turned out to be 0.1. The molecule also had a Kp at 4 h in “in vivo [6]” of 0.61.
Molecule `CC(C)(C)C#Cc1nc(-c2ccccc2Cl)c(-c2ccc(Cl)cc2)cc1C#N` displayed an IC50 against Cannabinoid receptor 2 of 2100 nM.
Same read-out and setting: the same measure for `CC(C)(O)C#Cc1nc(-c2ccccc2Cl)c(-c2ccc(Cl)cc2)cc1C#N`: 1800 nM; for `CCC(N)(C#Cc1nc(-c2ccccc2Cl)c(-c2ccc(Cl)cc2)cc1C#N)CC`: 1100 nM.
Still for that read-out and setting: the same measure for `N#Cc1cc(-c2ccc(Cl)cc2)c(-c2ccc(Cl)cc2Cl)nc1Oc1cc(F)cc(F)c1`: 320 nM; for `N#Cc1cc(-c2ccc(Cl)cc2)c(-c2ccccc2Cl)nc1Oc1ccc(F)c(F)c1`: 5700 nM; for `N#Cc1cc(-c2ccc(Cl)cc2)c(-c2ccc(Cl)cc2Cl)nc1Sc1ccc(F)cc1`: 5200 nM.
The same measure, in the same setting: the same measure for `N#Cc1cc(-c2ccc(Cl)cc2)c(-c2ccccc2Cl)nc1-c1cccnc1`: 3700 nM; for `Cn1cc(-c2nc(-c3ccccc3Cl)c(-c3ccc(Cl)cc3)cc2C#N)cn1`: 3300 nM; for `N#Cc1cc(-c2ccc(Cl)cc2)c(-c2ccc(Cl)cc2Cl)nc1Nc1ccc(F)cc1`: 2800 nM.
On Cannabinoid receptor 2, `CC(C)NC(=O)c1cc(-c2ccc(Cl)cc2)c(-c2ccc(Cl)cc2Cl)nc1Oc1ccc(F)c(F)c1` showed an IC50 of 1600 nM.
`CN(C)NC(=O)c1cc(-c2ccc(Cl)cc2)c(-c2ccc(Cl)cc2Cl)nc1Oc1ccc(F)c(F)c1`: the IC50 at Cannabinoid receptor 2 stood at 1800 nM. In “in vivo [1]”, this molecule yielded a bioavailability of 26%. For the same molecule, the clearance in “in vivo [2]” worked out at 24 mL/min/kg. Further, in “in vivo [3]”, the half-life was 4.1 h. Besides, the Vd in “in vivo [4]” stood at 6.7 L/kg. This molecule gave a Kp at […] in the data set “in vivo [5]” of 1.2. This molecule came in with a Kp at 4 h in “in vivo [6]” of 3.
On Cannabinoid receptor 2, `N#Cc1cc(-c2ccc(Cl)cc2)c(-c2ccc(Cl)cc2Cl)nc1-n1ccnc1` showed an IC50 of 310 nM.
With `CC(C)(C)C(=O)Nc1nc(-c2ccc(Cl)cc2Cl)c(-c2ccc(Cl)cc2)cc1C#N`, the half-inhibitory concentration (IC50) against Cannabinoid receptor 2 was 1700 nM.
On to `N#Cc1cc(-c2ccc(Cl)cc2)c(-c2ccc(Cl)cc2Cl)nc1OCCNC(=O)C1CCC1`, for which the half-inhibitory concentration (IC50) at Cannabinoid receptor 2 amounted to 450 nM. Compared with the last molecule, the IC50 is about 3.8-fold lower.
`N#Cc1cc(-c2ccc(Cl)cc2)c(-c2ccc(Cl)cc2Cl)nc1N1CCCCC1` had an IC50 against Cannabinoid receptor 2 of 4000 nM.
Same read-out and setting: with `N#Cc1cc(-c2ccc(Cl)cc2)c(-c2ccc(Cl)cc2Cl)nc1OC1CCOC1` (configuration not stated) the figure was 730 nM.
The same measure, in the same setting: the same measure for `N#Cc1cc(-c2ccc(Cl)cc2)c(-c2ccc(Cl)cc2Cl)nc1Oc1cccc(F)c1`: 2300 nM; for `N#Cc1cc(-c2ccc(Cl)cc2)c(-c2ccc(Cl)cc2Cl)nc1Oc1ccc(Cl)cc1`: 4200 nM; for `CC(C)CNc1nc(-c2ccc(Cl)cc2Cl)c(-c2ccc(Cl)cc2)cc1C#N`: 1800 nM.
The same measure, in the same setting: the same measure for `N#Cc1cc(-c2ccc(Cl)cc2)c(-c2ccc(Cl)cc2Cl)nc1Oc1cc(Cl)cc(Cl)c1`: 5600 nM; for `CC(C)Oc1nc(-c2ccc(Cl)cc2Cl)c(-c2ccc(Cl)cc2)cc1C#N`: 860 nM.
`N#Cc1cc(-c2ccc(Cl)cc2)c(-c2ccccc2Cl)nc1-c1cncnc1`: the IC50 at Cannabinoid receptor 2 came to 4300 nM.
As for `NC(=O)c1cc(-c2ccc(Cl)cc2)c(-c2ccc(Cl)cc2Cl)nc1Oc1ccc(F)c(F)c1`, on Cannabinoid receptor 2, half-maximal inhibition (IC50) was put at 4900 nM.
Same read-out and setting: with `N#Cc1cc(-c2ccc(Cl)cc2)c(-c2ccccc2Cl)nc1N1CCN(S(=O)(=O)c2cc(F)cc(F)c2)CC1` the figure was 1400 nM.
Still for that read-out and setting: with `N#Cc1cc(-c2ccc(Cl)cc2)c(-c2ccc(Cl)cc2Cl)nc1-n1nnc2ccccc21` the figure was 465 nM; with `N#Cc1cc(-c2ccc(Cl)cc2)c(-c2ccc(Cl)cc2Cl)nc1OCC1CCOC1` (configuration not stated), 430 nM.
Same read-out and setting: with `CC(C)(C)N1CCN(c2nc(-c3ccccc3Cl)c(-c3ccc(Cl)cc3)cc2C#N)CC1` the figure was 2600 nM; with `N#Cc1cc(-c2ccc(Cl)cc2)c(-c2ccc(Cl)cc2Cl)nc1NC(=O)c1ccc(F)c(F)c1`, 315 nM.
Turning to `CNN(C)C(=O)c1cc(-c2ccc(Cl)cc2)c(-c2ccc(Cl)cc2Cl)nc1Oc1ccc(F)c(F)c1`, half-maximal inhibition against Cannabinoid receptor 2 (IC50) required 650 nM.
